Assay results published in patent publication US20120028921A1, “METHODS AND COMPOSITIONS USING OXIDIZED PHOSPHOLIPIDS” (The Johns Hopkins University, priority 2004, published 2012).
Entries after “also recorded” stand apart in the source; their conditions may differ.

What was measured:
Erk-1,2 = Erk-1,2 MAP kinase cascade activation, phospho-specific immunoblotting; format: cell-based, human; conditions: for effect on OxPAPC-induced Erk-1,2 cascade activation/phosphorylation: UO-126 5 μM, genistein 100 μM, PKC peptide inhibitor 20 μM, BHT preincubated with OxPAPC
Procedure: (§1) Western immunoblotting. Protein extracts were separated by SDS-PAGE, transferred to polyvinylidene difluoride (PVDF) membranes (30 V for 18 h or 90 V for 2 h), and the membranes were incubated with specific antibodies of interest. Equal protein loadings were verified by reprobing membranes with anti-Erk, anti-Fax, or anti-paxillin antibodies. Immunoreactive proteins were detected with the enhanced chemiluminescent detection system (ECL) according to the manufacturer's directions (New England BioLabs, Beverly, Mass.). The relative intensities of the protein bands were quantified by scanning densitometry using Image Quant 5.2 (Molecular Dynamics, Piscataway, N.J.) software.
(§2) Activation of MAP kinase pathways and characterization of tyrosine phosphorylation. Activation of MAP kinase cascade was by monitored by western immunoblotting techniques using phosphospecific antibodies, which are described in Materials section and detect activated form of protein kinases of the MAP kinase cascade. Analysis of the total protein tyrosine phosphorylation was performed by immunoblotting with phosphotyrosine antibody.

JNK = JNK MAP kinase phosphorylation, immunoblotting; format: cell-based, human
Procedure: as §1, §2

[1] = tested on: protein tyrosine phosphorylation; experiment: Total protein tyrosine phosphorylation, phosphotyrosine immunoblot; format: cell-based, human; conditions: for effect on OxPAPC-induced protein tyrosine phosphorylation: genistein 100 μM, BHT preincubated with OxPAPC
Procedure: as §1, §2

[2] = tested on: human pulmonary endothelial cells (HPAEC); experiment: Transendothelial electrical resistance (TER), ECIS system; format: cell-based; conditions: for effect of pretreatment on OxPAPC-induced TER increase: BHT 5 μM 10 min preincubated with OxPAPC, toxin B 100 ng/ml, Y27632 5 μM, 1 hr; for effect on transendothelial electrical resistance (TER): agent alone, phospholipids up to 20 μg/ml; for co-elution with TER-increasing activity in HPLC-MS of fraction 2: reversed phase HPLC fractions tested on TER; for effect of synthetic fragmented phospholipids on TER: prepared by chemical synthesis
Procedure: Human pulmonary endothelial cells (HPAEC) were cultured and transfected with cDNAs as described previously (Birukov et al., 2002). Lipid oxidation and analysis of oxidation products by positive ion electrospray mass spectrometry (ESI-MS) was performed as described previously (Watson et al., 1997, Leitinger et al. 1999 and, Bochov et al. 2002). Measurements of transendothelial electrical resistance were performed using electrical cell substrate impedance-sensing (ECIS) system as described elsewhere (Garcia et al., 2001 and Birukova et al., 2004). Transient transfections and siRNA-based protein depletion of small GTPases were performed as described elsewhere (Birukov et al. 2002, Birukova et al., 2004 and Birukova et al., 2004a). Rac, Cdc42 and Rho activation assays were performed using assay kits from Upstate Biotechnology (Lake Placid, N.Y.) (Garcia et al., 2001 and Birukova et al., 2004). Subcellular protein fractionation, western blot analyses and densitometric analyses were performed from at least 3 experiments as described (Birukova et al., 2004). Immunofluorescent staining of HPAEC was performed as previously described (Birukov et al., 2002, Birukova et al., 2004). ANOVAs and a post hoc Student-Newman-Keuls test were used to compare the means of two or more different treatment groups. Results were expressed as the mean±SE. Differences between two groups were considered statistically significant with a value of P<0.05.

PKC = PKC activation: phospho-PKC substrate immunoblot and in vitro kinase assay of lysates; format: cell-based, human
Procedure: (§3) Analysis of PKC and PKA activities. After stimulation with OxPAPC (20 μg/ml, 15 min), HPAEC were lysed, cell lysates were clarified by centrifugation (14000 g, 5 min, +4 C.°), and PKA and PKC activities were measured using in vitro kinase assay kits obtained from Promega Corp. (Madison, Wis.) according to manufacturer protocol. Additionally, OxPAPC-induced PKC and PKA activation in HPAEC cultures was determined by immunoblotting of whole cell lysates with phospho-PKC substrate- and phospho-PKA substrate-specific antibodies that recognize PKA- or PKC-phosphorylated sites in the EC endogenous proteins.

p38 = p38 MAP kinase phosphorylation, immunoblotting; format: cell-based, human; conditions: 20 μg/ml
Procedure: as §1, §2

PKA = PKA activation: phospho-PKA substrate immunoblot and in vitro kinase assay of lysates; format: cell-based, human; conditions: phospho-PKA substrate immunoblot
Procedure: as §3

paxillin = experiment: Paxillin Tyr118 phosphorylation, immunoblot; format: cell-based, human; conditions: PP-2 5 μM pretreatment
Procedure: as §1

FAK = FAK Tyr576 phosphorylation, immunoblot; format: cell-based, human; conditions: PP-2 5 μM pretreatment
Procedure: as §1

[3] = tested on: human pulmonary endothelial cells (HPAEC); conditions: literature (Goggel et al. 2004); cited from earlier work
[4] = HPAEC monolayers, thrombin 50 nM

Cc1cc(C(C)(C)C)c(O)c(C(C)(C)C)c1 [BHT, butylated hydroxytoluene]
effect on OxPAPC-induced Erk-1,2 cascade activation/phosphorylation (Erk-1,2): same levels of Erk-1,2 activation
effect of preincubation on OxPAPC-induced JNK activation (JNK; OxPAPC preincubated with BHT): same levels of JNK activation
effect on OxPAPC-induced protein tyrosine phosphorylation [1]: did not affect
effect of pretreatment on OxPAPC-induced TER increase [2]: did not affect

CCCCCCCCCCCCCC(=O)OC[C@H](COP(=O)([O-])OCC[N+](C)(C)C)OC(=O)CCCCCCCCCCCCC [DMPC, dimyristoyl phosphatidyl choline]
effect on transendothelial electrical resistance (TER) [2, 4]: did not exhibit significant effects

CCCCC/C=C\C/C=C\C/C=C\C/C=C\CCCC(=O)O[C@H](COC(=O)CCCCCCCCCCCCCCC)COP(=O)([O-])OCC[N+](C)(C)C [PAPC, 1-palmitoyl-2-arachidomoyl-sn-glycero-3-phosphorylcholine]
PKC-mediated phosphorylation of endogenous substrates (PKC; phospho-PKC substrate immunoblot): did not significantly increase
phosphorylation / activation of p38 (p38): without effect
Erk-1,2 activation (Erk-1,2; 20 μg/ml): had no effect
phosphorylation / activation of JNK (JNK; 20 μg/ml): without effect
protein tyrosine phosphorylation ([1]; 20 μg/ml): without effect
effect on transendothelial electrical resistance (TER) [2, 4]: did not exhibit significant effects
PKA-mediated phosphorylation of endogenous substrates / PKA activation (PKA): did not induce PKA activation

CCCCC/C=C\CC1C=CC(=O)/C1=C/C1OC1CCCC(=O)O[C@H](COC(=O)CCCCCCCCCCCCCCC)COP(=O)([O-])OCC[N+](C)(C)C (stereo partly drawn) [PECPC, 1-palmitoyl-2-(epoxycyclopentenone)-sn-glycero-3-phosphorylcholine]
co-elution with TER-increasing activity in HPLC-MS of fraction 2 [2]: co-eluted with the fraction exhibiting major barrier-protective activity; also recorded: co-eluted with TER increasing activity

CCCCC/C=C\CC1/C(=C\C2OC2CCCC(=O)O[C@H](COC(=O)CCCCCCCCCCCCCCC)COP(=O)([O-])OCC[N+](C)(C)C)C(=O)CC1O (stereo partly drawn) [PEIPC, 1-palmitoyl-2-(epoxyisoprostane E2)-sn-glycero-3-phosphocholine]
co-elution with TER-increasing activity in HPLC-MS of fraction 2 [2]: co-eluted with TER increasing activity

CCCCCCCCCCCCCCCC(=O)OC[C@H](COP(=O)([O-])OCC[N+](C)(C)C)OC(=O)CCCC(=O)O [PGPC]
effect of synthetic fragmented phospholipids on TER [2]: significantly and concentration-dependently decreased TER

CCCCC/C=C\C/C=C\CCCCCCCC(=O)OC(COC(=O)CCCCCCCCCCCCCCC)COP(=O)([O-])OCC[N+](C)(C)C (stereo not drawn) [PLPC, palmitoyl-linoleate phosphatidyl choline]
effect on transendothelial electrical resistance (TER) [2, 4]: did not exhibit significant effects

CCCCCCCCCCCCCCCC(=O)OC[C@H](COP(=O)([O-])OCC[N+](C)(C)C)OC(=O)CCCC=O [POVPC]
effect of synthetic fragmented phospholipids on TER [2]: significantly and concentration-dependently decreased TER

CC(C)(C)n1nc(-c2ccc(Cl)cc2)c2c(N)ncnc21 [PP-2]
effect on OxPAPC-induced paxillin phosphorylation (paxillin): attenuated
effect on OxPAPC-induced FAK phosphorylation (FAK): attenuated

CCCCCCCCCCCCC/C=C/[C@@H](O)[C@@H](N)COP(=O)(O)O [S1P, sphingosine 1-phosphate]
concentration giving maximal barrier protective effect ([2]; HPAEC monolayers): 1 µM
effect on transendothelial electrical resistance (TER) [2, 4]: rapid concentration-dependent TER increase

N#CC(=C(/N)Sc1ccccc1N)/C(C#N)=C(/N)Sc1ccccc1N [UO-126]
effect on OxPAPC-induced Erk-1,2 cascade activation/phosphorylation (Erk-1,2): completely abolished

C[C@@H](N)[C@H]1CC[C@H](C(=O)Nc2ccncc2)CC1 [Y27632]
effect of pretreatment on OxPAPC-induced TER increase [2]: not

CN(C)CCCn1cc(C2=C(c3c[nH]c4ccccc34)C(=O)NC2=O)c2ccccc21 [bisindolmaleimide I]
effect on OxPAPC-induced PKC activity (PKC; in vitro kinase assay, preincubation 1 hour): attenuated OxPAPC-induced PKC activation to a lesser extent

O=c1c(-c2ccc(O)cc2)coc2cc(O)cc(O)c12 [genistein]
effect on OxPAPC-induced Erk-1,2 cascade activation/phosphorylation (Erk-1,2): attenuated
effect on OxPAPC-induced protein tyrosine phosphorylation [1]: abolished

lysoPC
effect of synthetic fragmented phospholipids on TER [2]: significantly and concentration-dependently decreased TER

platelet activating factor [PAF]
barrier effect compared with OxPAPC [3]: does not mimic barrier-protective OxPAPC effects

thrombin
effect on transendothelial electrical resistance (TER) [2, 4]: abrupt decrease in TER
TER recovery time after maximal TER decline ([2]; thrombin 50 nM, with or without OxPAPC 20 μg/ml, five experiments): 115 min
